# Test results: patent US11591336B2 (Relay Therapeutics, Inc., priority 2017, dated 2023)
# Structures can show the parent of a compound that is named as a salt.
# Molecular target: SHP2 (Homo sapiens (Human), UniProt Q06124)
# Assay: SHP2 Allosteric Inhibition Assay (DiFMUP prompt fluorescence)
# Format: biochemical
# Conditions: 0.25 nM SHP2 activated with 0.5 μM peptide IRS1_pY1172(dPEG8)pY1222; substrate DiFMUP 100 μM; 25° C.
# Chain of SHP2 (Q06124 whole entry): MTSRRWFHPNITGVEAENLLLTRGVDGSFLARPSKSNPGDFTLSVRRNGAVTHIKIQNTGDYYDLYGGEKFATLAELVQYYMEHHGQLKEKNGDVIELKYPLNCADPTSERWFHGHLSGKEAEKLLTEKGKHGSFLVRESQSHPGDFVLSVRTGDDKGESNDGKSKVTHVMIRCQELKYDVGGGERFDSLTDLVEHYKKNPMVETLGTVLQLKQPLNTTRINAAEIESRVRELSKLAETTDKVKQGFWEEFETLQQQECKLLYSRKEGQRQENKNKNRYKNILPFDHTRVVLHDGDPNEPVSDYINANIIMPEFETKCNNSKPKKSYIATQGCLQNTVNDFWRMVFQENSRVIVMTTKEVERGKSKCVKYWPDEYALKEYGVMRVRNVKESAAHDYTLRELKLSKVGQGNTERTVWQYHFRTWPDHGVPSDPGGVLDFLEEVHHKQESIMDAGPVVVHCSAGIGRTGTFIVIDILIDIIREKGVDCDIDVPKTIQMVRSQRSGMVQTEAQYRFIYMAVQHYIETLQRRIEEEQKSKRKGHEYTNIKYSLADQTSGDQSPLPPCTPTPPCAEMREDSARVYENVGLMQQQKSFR
row,SMILES,IC50
1,"C[C@@H]1OCC2(CCN(c3cnc4c(N5CCN(CC(=O)O)c6cc(C#N)ccc65)n[nH]c4n3)CC2)[C@@H]1N [Compound 423, 2-(4-{6-[(3S,4S)-4-amino-3-methyl-2-oxa-8-azaspiro[4.5]decan-8-yl]-1H-pyrazolo[3,4-b]pyrazin-3-yl}-7-cyano-1,2,3,4-tetrahydroquinoxalin-1-yl)acetic acid]",< 1000 nM
2,C[C@@H]1OCC2(CCN(c3cnc4c(N5CCCc6c5ccnc6-c5nccs5)n[nH]c4n3)CC2)[C@@H]1N [Compound 424],< 1000 nM
3,"CNC(=O)Cc1ccc2c(n1)CCCN2c1n[nH]c2nc(N3CCC4(CC3)CO[C@@H](C)[C@H]4N)cnc12 [Compound 425, 2-(5-{6-[(3S,4S)-4-amino-3-methyl-2-oxa-8-azaspiro[4.5]decan-8-yl]-1H-pyrazolo[3,4-b]pyrazin-3-yl}-5,6,7,8-tetrahydro-1,5-naphthyridin-2-yl)-N-methylacetamide]",< 1000 nM
4,"CO/N=C/c1ccc2c(c1)[C@@H](C)CCN2c1n[nH]c2nc(N3CCC4(CC3)CO[C@@H](C)[C@H]4N)cnc12 [Compound 426, (3S,4S)-8-{3-[(4S)-6-[(1E)-(methoxyimino)methyl]-4-methyl-1,2,3,4-tetrahydroquinolin-1-yl]-1H-pyrazolo[3,4-b]pyrazin-6-yl}-3-methyl-2-oxa-8-azaspiro[4.5]decan-4-amine]",< 1000 nM
5,"C[C@@H]1OCC2(CCN(c3cnc4c(N5CCCc6nc(C7=CCNCC7)ccc65)n[nH]c4n3)CC2)[C@@H]1N [Compound 427, (3S,4S)-3-methyl-8-{3-[6-(1,2,3,6-tetrahydropyridin-4-yl)-1,2,3,4-tetrahydro-1,5-naphthyridin-1-yl]-1H-pyrazolo[3,4-b]pyrazin-6-yl}-2-oxa-8-azaspiro[4.5]decan-4-amine hydrochloride]",< 1000 nM
6,"Cc1nnc(-c2c(Cl)ccc3c2CCCN3c2n[nH]c3nc(N4CCC5(CC4)CO[C@@H](C)[C@H]5N)cnc23)o1 [Compound 429, (3S,4S)-8-{3-[6-chloro-5-(5-methyl-1,3,4-oxadiazol-2-yl)-1,2,3,4-tetrahydroquinolin-1-yl]-1H-pyrazolo[3,4-b]pyrazin-6-yl}-3-methyl-2-oxa-8-azaspiro[4.5]decan-4-amine]",< 1000 nM
7,"C[C@@H]1OCC2(CCN(c3cnc4c(N5CC[C@H](C)c6nc(-c7ccn[nH]7)ccc65)n[nH]c4n3)CC2)[C@@H]1N [Compound 430, (3S,4S)-3-methyl-8-{3-[(4S)-4-methyl-6-(1H-pyrazol-5-yl)-1,2,3,4-tetrahydro-1,5-naphthyridin-1-yl]-1H-pyrazolo[3,4-b]pyrazin-6-yl}-2-oxa-8-azaspiro[4.5]decan-4-amine]",< 1000 nM
8,"C[C@@H]1OCC2(CCN(c3cnc4c(N5CCCc6c(CO)cccc65)n[nH]c4n3)CC2)[C@@H]1N [Compound 431, (1-{6-[(3S,4S)-4-amino-3-methyl-2-oxa-8-azaspiro[4.5]decan-8-yl]-1H-pyrazolo[3,4-b]pyrazin-3-yl}-1,2,3,4-tetrahydroquinolin-5-yl)methanol]",< 1000 nM
9,C[C@@H]1CCN(c2n[nH]c3nc(N4CCC5(CC4)CO[C@@H](C)[C@H]5N)cnc23)c2ccc(-c3ccn[nH]3)nc21 [Compound 432],< 1000 nM
10,"C[C@@H]1OCC2(CCN(c3cnc4c(N5CCCc6c(-c7ncon7)cccc65)n[nH]c4n3)CC2)[C@@H]1N [Compound 433, (3S,4S)-3-methyl-8-{3-[5-(1,2,4-oxadiazol-3-yl)-1,2,3,4-tetrahydroquinolin-1-yl]-1H-pyrazolo[3,4-b]pyrazin-6-yl}-2-oxa-8-azaspiro[4.5]decan-4-amine]",< 1000 nM
11,"CNC(=O)Cc1cccc2c1CCCN2c1n[nH]c2nc(N3CCC4(CC3)CO[C@@H](C)[C@H]4N)cnc12 [Compound 434, 2-(1-{6-[(3S,4S)-4-amino-3-methyl-2-oxa-8-azaspiro[4.5]decan-8-yl]-1H-pyrazolo[3,4-b]pyrazin-3-yl}-1,2,3,4-tetrahydroquinolin-5-yl)-N-methylacetamide hydrochloride]",< 1000 nM
12,C[C@@H]1OCC2(CCN(c3cnc4c(N5CCCc6c(CCO)cccc65)n[nH]c4n3)CC2)[C@@H]1N [Compound 435],< 1000 nM
13,"C[C@@H]1OCC2(CCN(c3cnc4c(N5CCCc6nc(/C=N\O)ccc65)n[nH]c4n3)CC2)[C@@H]1N [Compound 436, (3S,4S)-8-(3-{6-[(1Z)-(hydroxyimino)methyl]-1,2,3,4-tetrahydro-1,5-naphthyridin-1-yl}-1H-pyrazolo[3,4-b]pyrazin-6-yl)-3-methyl-2-oxa-8-azaspiro[4.5]decan-4-amine hydrochloride]",< 1000 nM
14,CC(C)NC(=O)c1ccc2c(n1)[C@H](C)CCN2c1n[nH]c2nc(N3CCC4(CC3)CO[C@@H](C)[C@H]4N)cnc12 [Compound 438],< 1000 nM
15,C[C@@H]1OCC2(CCN(c3cnc4c(N5CCN(CCO)c6cc(C#N)ccc65)n[nH]c4n3)CC2)[C@@H]1N [Compound 439],< 1000 nM
16,C[C@@H]1OCC2(CCN(c3cnc4c(N5CCN(C)c6c(-c7cnn(C)c7)cccc65)n[nH]c4n3)CC2)[C@@H]1N [Compound 440],< 1000 nM
17,C[C@@H]1OCC2(CCN(c3cnc4c(N5CCCc6c(CC#N)cccc65)n[nH]c4n3)CC2)[C@@H]1N [Compound 441],< 1000 nM
18,COCCNC(=O)c1ccc2c(n1)[C@@H](C)CCN2c1n[nH]c2nc(N3CCC4(CC3)CO[C@@H](C)[C@H]4N)cnc12 [Compound 443],< 1000 nM
19,"CO/N=C/c1ccc2c(n1)[C@@H](C)CCN2c1n[nH]c2nc(N3CCC4(CC3)CO[C@@H](C)[C@H]4N)cnc12 [Compound 444, (3S,4S)-8-{3-[(4S)-6-[(1E)-(methoxyimino)methyl]-4-methyl-1,2,3,4-tetrahydro-1,5-naphthyridin-1-yl]-1H-pyrazolo[3,4-b]pyrazin-6-yl}-3-methyl-2-oxa-8-azaspiro[4.5]decan-4-amine hydrochloride]",< 1000 nM
20,C[C@@H]1OCC2(CCN(c3cnc4c(N5CC[C@H](C)c6nc(C(=O)NCc7cccnc7)ccc65)n[nH]c4n3)CC2)[C@@H]1N [Compound 445],< 1000 nM
21,CC(C)NC(=O)c1ccc2c(n1)[C@@H](C)CCN2c1n[nH]c2nc(N3CCC4(CC3)CO[C@@H](C)[C@H]4N)cnc12 [Compound 446],< 1000 nM

row,SMILES,IC50
1,C[C@@H]1OCC2(CCN(c3cnc4c(N5CC[C@H](C)c6nc(C(=O)NCCO)ccc65)n[nH]c4n3)CC2)[C@@H]1N [Compound 447],< 1000 nM
2,"C[C@@H]1CCN(c2n[nH]c3nc(N4CCC5(CC4)CO[C@@H](C)[C@H]5N)cnc23)c2ccc(-c3nnc[nH]3)nc21 [Compound 452, dihydrochloride]",< 1000 nM
3,"C[C@@H]1OCC2(CCN(c3cnc4c(N5CCN(CC(=O)N(C)C)c6cc(C#N)ccc65)n[nH]c4n3)CC2)[C@@H]1N [Compound 453, 2-(4-{6-[(3S,4S)-4-amino-3-methyl-2-oxa-8-azaspiro[4.5]decan-8-yl]-1H-pyrazolo[3,4-b]pyrazin-3-yl}-7-cyano-1,2,3,4-tetrahydroquinoxalin-1-yl)-N,N-dimethylacetamide]",< 1000 nM
4,"C[C@@H]1OCC2(CCN(c3cnc4c(N5CC[C@H](C)c6nc(-c7nnc[nH]7)ccc65)n[nH]c4n3)CC2)[C@@H]1N [Compound 454, (3S,4S)-3-methyl-8-{3-[(4S)-4-methyl-6-(4H-1,2,4-triazol-3-yl)-1,2,3,4-tetrahydro-1,5-naphthyridin-1-yl]-1H-pyrazolo[3,4-b]pyrazin-6-yl}-2-oxa-8-azaspiro[4.5]decan-4-amine]",< 1000 nM
5,C[C@@H]1OCC2(CCN(c3cnc4c(N5CCCc6c(CS(C)(=O)=O)cccc65)n[nH]c4n3)CC2)[C@@H]1N [Compound 455],< 1000 nM
6,CC(C)S(=O)(=O)c1cccc2c1CCCN2c1n[nH]c2nc(N3CCC4(CC3)CO[C@@H](C)[C@H]4N)cnc12 [Compound 456],< 1000 nM
7,C[C@@H]1OCC2(CCN(c3cnc4c(N5CCCc6c5cccc6S(=O)(=O)C5CC5)n[nH]c4n3)CC2)[C@@H]1N [Compound 457],< 1000 nM
8,C[C@@H]1OCC2(CCN(c3cnc4c(N5CCCc6c(CN7CCOCC7)cccc65)n[nH]c4n3)CC2)[C@@H]1N [Compound 458],< 1000 nM
9,C[C@@H]1OCC2(CCN(c3cnc4c(N5CCCc6c(CN7CCOC7=O)cccc65)n[nH]c4n3)CC2)[C@@H]1N [Compound 459],< 1000 nM
10,COCCS(=O)(=O)c1cccc2c1CCCN2c1n[nH]c2nc(N3CCC4(CC3)CO[C@@H](C)[C@H]4N)cnc12 [Compound 460],< 1000 nM
11,COC(=O)Cc1cccc2c1CCCN2c1n[nH]c2nc(N3CCC4(CC3)CO[C@@H](C)[C@H]4N)cnc12 [Compound 461],< 1000 nM
12,C=C(C)c1cccc2c1CCCN2c1n[nH]c2nc(N3CCC4(CC3)CO[C@@H](C)[C@H]4N)cnc12 [Compound 462],< 1000 nM
13,C[C@@H]1OCC2(CCN(c3cnc4c(N5CCCc6c5cccc6S(=O)(=O)C5COC5)n[nH]c4n3)CC2)[C@@H]1N [Compound 464],< 1000 nM
14,C[C@@H]1OCC2(CCN(c3cnc4c(N5CCCc6c5cccc6S(=O)(=O)c5cnn(C)c5)n[nH]c4n3)CC2)[C@@H]1N [Compound 465],< 1000 nM
15,CC(=O)N(C)Cc1cccc2c1CCCN2c1n[nH]c2nc(N3CCC4(CC3)CO[C@@H](C)[C@H]4N)cnc12 [Compound 466],< 1000 nM
16,"N[C@@H]1C[C@H](O)CC12CCN(c1cnc3c(N4CCCc5ncccc54)n[nH]c3n1)CC2 [Compound 467, (2R,4R)-4-amino-8-[3-(1,2,3,4-tetrahydro-1,5-naphthyridin-1-yl)-1H-pyrazolo[3,4-b]pyrazin-6-yl]-8-azaspiro[4.5]decan-2-ol]",< 1000 nM
17,CO[C@H]1C[C@@H](N2CCN(c3n[nH]c4nc(N5CCC6(CC5)CO[C@@H](C)[C@H]6N)cnc34)c3ccc(C#N)cc32)C1 [Compound 469],< 1000 nM
18,CO[C@H]1C[C@H](N2CCN(c3n[nH]c4nc(N5CCC6(CC5)CO[C@@H](C)[C@H]6N)cnc34)c3ccc(C#N)cc32)C1 [Compound 470],< 1000 nM
19,CC(=O)N1CC(N2CCN(c3n[nH]c4nc(N5CCC6(CC5)CO[C@@H](C)[C@H]6N)cnc34)c3ccc(C#N)cc32)C1 [Compound 471],< 1000 nM
20,"CC1(N)CCN(c2cnc3c(NCc4ccccc4)n[nH]c3n2)CC1 [Compound 473, 6-(4-amino-4-methyl-1-piperidyl)-N-benzyl-1H-pyrazolo[3,4-b]pyrazin-3-amine]",1000 to 10000 nM
